Laboratory results as given in patent US20150141381A1, “TETRACYCLINE COMPOUNDS HAVING TARGET THERAPEUTIC ACTIVITIES” (Paratek Pharmaceuticals, Inc., priority 2001, published 2015).
Read-outs that look alike come from different tables or passages of the source.

Experiments:
S. aureus RN450 = assay: In Vitro Anti-Bacterial Activity Assay (MIC), gram positive; assay type: cell-based; conditions: Staphylococcus aureus, RN450, 18 h, gram positive bacteria; read-out: Antibiotic Activity Gram + (MIC)
E. coli mL308 225 = assay: In Vitro Anti-Bacterial Activity Assay (MIC), gram negative; assay type: cell-based; conditions: Escherichia coli, ML308225, 18 h, read-out: Antibiotic Activity Gram − (MIC)

SMILES | MIC (S. aureus RN450) | MIC (E. coli mL308 225; gram negative bacteria) | MIC (E. coli mL308 225)
CN(C)[C@@H]1C(O)=C(C(N)=O)C(=O)[C@@]2(O)C(O)=C3C(=O)c4c(O)ccc(-c5ccc(CNc6ccccc6)cc5)c4C[C@H]3C[C@@H]12 | < 4 µg/mL | > 4 µg/mL | 
COc1ccc(CNCCC#N)cc1-c1ccc(O)c2c1C[C@H]1C[C@H]3[C@H](N(C)C)C(O)=C(C(N)=O)C(=O)[C@@]3(O)C(O)=C1C2=O | < 4 µg/mL | > 4 µg/mL | 
CN(C)[C@@H]1C(O)=C(C(N)=O)C(=O)[C@@]2(O)C(O)=C3C(=O)c4c(O)ccc(-c5ccc(CNC#N)cc5)c4C[C@H]3C[C@@H]12 | < 4 µg/mL | < 4 µg/mL | 
CN(C)c1cc(NCc2ccc(O)c(O)c2)c(O)c2c1C[C@H]1C[C@H]3[C@H](N(C)C)C(O)=C(C(N)=O)C(=O)[C@@]3(O)C(O)=C1C2=O | < 4 µg/mL | > 4 µg/mL | 
CN(C)c1cc(NCc2ccccc2OC(C)(C)C)c(O)c2c1C[C@H]1C[C@H]3[C@H](N(C)C)C(O)=C(C(N)=O)C(=O)[C@@]3(O)C(O)=C1C2=O | < 4 µg/mL | > 4 µg/mL | 
CN(C)[C@@H]1C(O)=C(C(N)=O)C(=O)[C@@]2(O)C(O)=C3C(=O)c4c(O)ccc(C(=O)CN5CCOCC5)c4C[C@H]3C[C@@H]12 | < 4 µg/mL | > 4 µg/mL | 
CN(C)c1cc(CN2CCOCC2)c(O)c2c1C[C@H]1C[C@H]3[C@H](N(C)C)C(O)=C(C(N)=O)C(=O)[C@@]3(O)C(O)=C1C2=O | < 4 µg/mL | > 4 µg/mL | 
CC(CF)NCc1ccc(O)c2c1C[C@H]1C[C@H]3[C@H](N(C)C)C(O)=C(C(N)=O)C(=O)[C@@]3(O)C(O)=C1C2=O (stereo partly drawn) | < 4 µg/mL |  | > 4 µg/mL
CN(C)[C@@H]1C(O)=C(C(N)=O)C(=O)[C@@]2(O)C(O)=C3C(=O)c4c(O)ccc(CNCc5ccc(F)cc5)c4C[C@H]3C[C@@H]12 | < 4 µg/mL | < 4 µg/mL | 
CC(C)CN(C=O)Cc1cc(N(C)C)c2c(c1O)C(=O)C1=C(O)[C@]3(O)C(=O)C(C(N)=O)=C(O)[C@@H](N(C)C)[C@@H]3C[C@@H]1C2 | > 4 µg/mL | > 4 µg/mL | 
CN(C)[C@@H]1C(O)=C(C(N)=O)C(=O)[C@@]2(O)C(O)=C3C(=O)c4c(O)ccc(-c5ccc(/C=N/CC#N)cc5)c4C[C@H]3C[C@@H]12 | < 4 µg/mL | > 4 µg/mL | 
CN(C)[C@@H]1C(O)=C(C(N)=O)C(=O)[C@@]2(O)C(O)=C3C(=O)c4c(O)ccc(-c5ccc(NC(=O)c6ccco6)cc5)c4C[C@H]3C[C@@H]12 | < 4 µg/mL | > 4 µg/mL | 
CN(C)[C@@H]1C(O)=C(C(N)=O)C(=O)[C@@]2(O)C(O)=C3C(=O)c4c(O)ccc(-c5cccc(NC(=O)c6ccno6)c5)c4C[C@H]3C[C@@H]12 | < 4 µg/mL | > 4 µg/mL | 
CC(=O)Nc1ccc(-c2ccc(O)c3c2C[C@H]2C[C@H]4[C@H](N(C)C)C(O)=C(C(N)=O)C(=O)[C@@]4(O)C(O)=C2C3=O)cc1 | < 4 µg/mL | > 4 µg/mL | 
COCC(=O)Nc1ccc(-c2ccc(O)c3c2C[C@H]2C[C@H]4[C@H](N(C)C)C(O)=C(C(N)=O)C(=O)[C@@]4(O)C(O)=C2C3=O)cc1 | < 4 µg/mL | < 4 µg/mL | 
CN(C)[C@@H]1C(O)=C(C(N)=O)C(=O)[C@@]2(O)C(O)=C3C(=O)c4c(O)ccc(-c5ccc(NC(=O)OCCF)cc5)c4C[C@H]3C[C@@H]12 | < 4 µg/mL | > 4 µg/mL | 
CN(C)[C@@H]1C(O)=C(C(N)=O)C(=O)[C@@]2(O)C(O)=C3C(=O)c4c(O)ccc(-c5ncccn5)c4C[C@H]3C[C@@H]12 | < 4 µg/mL | < 4 µg/mL | 
CN(C)c1cc(CNC(=O)CC(F)(F)F)c(O)c2c1C[C@H]1C[C@H]3[C@H](N(C)C)C(O)=C(C(N)=O)C(=O)[C@@]3(O)C(O)=C1C2=O | < 4 µg/mL | < 4 µg/mL | 
CN(C)c1cc(CNc2ccccc2)c(O)c2c1C[C@H]1C[C@H]3[C@H](N(C)C)C(O)=C(C(N)=O)C(=O)[C@@]3(O)C(O)=C1C2=O | < 4 µg/mL | > 4 µg/mL | 
CSCc1cc(I)c2c(c1O)C(=O)C1=C(O)[C@]3(O)C(=O)C(C(N)=O)=C(O)[C@@H](N(C)C)[C@@H]3C[C@@H]1C2 | < 4 µg/mL | < 4 µg/mL | 
COC(=O)C(=O)Nc1ccc(-c2ccc(O)c3c2C[C@H]2C[C@H]4[C@H](N(C)C)C(O)=C(C(N)=O)C(=O)[C@@]4(O)C(O)=C2C3=O)cc1 | < 4 µg/mL | > 4 µg/mL | 
CN(C)[C@@H]1C(O)=C(C(N)=O)C(=O)[C@@]2(O)C(O)=C3C(=O)c4c(O)ccc(C(=O)CN5CCCCC5)c4C[C@H]3C[C@@H]12 | < 4 µg/mL | < 4 µg/mL | 
C[C@H]1c2ccc(N3CCOCC3)c(O)c2C(=O)C2=C(O)[C@]3(O)C(=O)C(C(N)=O)=C(O)[C@@H](N(C)C)[C@@H]3[C@@H](O)[C@@H]21 | > 4 µg/mL | > 4 µg/mL | 
CN(C)[C@@H]1C(O)=C(C(N)=O)C(=O)[C@@]2(O)C(O)=C3C(=O)c4c(ccc(N5CCOCC5)c4O)C[C@H]3C[C@@H]12 | > 4 µg/mL | > 4 µg/mL | 

SMILES | MIC (S. aureus RN450) | MIC (E. coli mL308 225; gram negative bacteria) | MIC (E. coli mL308 225)
CN(C)c1cc(-c2ccc(CN3CCN(CCO)CC3)o2)c(O)c2c1C[C@H]1C[C@H]3[C@H](N(C)C)C(O)=C(C(N)=O)C(=O)[C@@]3(O)C(O)=C1C2=O | < 4 µg/mL | > 4 µg/mL | 
CN(C)[C@@H]1C(O)=C(C(N)=O)C(=O)[C@@]2(O)C(O)=C3C(=O)c4c(O)ccc(CN5CCOCC5)c4C[C@H]3C[C@@H]12 | < 4 µg/mL | > 4 µg/mL | 
CN(C)c1cc(N2CCOCC2)c(O)c2c1C[C@H]1C[C@H]3[C@H](N(C)C)C(O)=C(C(N)=O)C(=O)[C@@]3(O)C(O)=C1C2=O | > 4 µg/mL | > 4 µg/mL | 
CC1CCN(CC(=O)c2ccc(O)c3c2C[C@H]2C[C@H]4[C@H](N(C)C)C(O)=C(C(N)=O)C(=O)[C@@]4(O)C(O)=C2C3=O)CC1 | < 4 µg/mL | > 4 µg/mL | 
CN(C)[C@@H]1C(O)=C(C(N)=O)C(=O)[C@@]2(O)C(O)=C3C(=O)c4c(O)ccc(CNCc5ccccc5)c4C[C@H]3C[C@@H]12 | < 4 µg/mL | < 4 µg/mL | 
COCc1cccc(-c2ccc(O)c3c2C[C@H]2C[C@H]4[C@H](N(C)C)C(O)=C(C(N)=O)C(=O)[C@@]4(O)C(O)=C2C3=O)c1 | < 4 µg/mL | < 4 µg/mL | 
CCCC(C)c1ccc(OC)c(-c2ccc(O)c3c2C[C@H]2C[C@H]4[C@H](N(C)C)C(O)=C(C(N)=O)C(=O)[C@@]4(O)C(O)=C2C3=O)c1 (stereo partly drawn) | < 4 µg/mL | > 4 µg/mL | 
COC(=O)CCc1cccc(-c2ccc(O)c3c2C[C@H]2C[C@H]4[C@H](N(C)C)C(O)=C(C(N)=O)C(=O)[C@@]4(O)C(O)=C2C3=O)c1 | < 4 µg/mL | > 4 µg/mL | 
CC(=O)Cc1cc(I)c2c(c1O)C(=O)C1=C(O)[C@]3(O)C(=O)C(C(N)=O)=C(O)[C@@H](N(C)C)[C@@H]3C[C@@H]1C2 | > 4 µg/mL | > 4 µg/mL | 
CN(C)c1cc(NCc2ccc([N+](=O)[O-])o2)c(O)c2c1C[C@H]1C[C@H]3[C@H](N(C)C)C(O)=C(C(N)=O)C(=O)[C@@]3(O)C(O)=C1C2=O | < 4 µg/mL | > 4 µg/mL | 
CN(C)c1cc(-c2ccc(CN3CCN(c4ccccc4F)CC3)o2)c(O)c2c1C[C@H]1C[C@H]3[C@H](N(C)C)C(O)=C(C(N)=O)C(=O)[C@@]3(O)C(O)=C1C2=O | > 4 µg/mL | > 4 µg/mL | 
CN1CCN(Cc2ccc(-c3cc(N(C)C)c4c(c3O)C(=O)C3=C(O)[C@]5(O)C(=O)C(C(N)=O)=C(O)[C@@H](N(C)C)[C@@H]5C[C@@H]3C4)o2)CC1 | < 4 µg/mL | > 4 µg/mL | 
CN(C)CCN(Cc1ccccc1)Cc1ccc(-c2cc(N(C)C)c3c(c2O)C(=O)C2=C(O)[C@]4(O)C(=O)C(C(N)=O)=C(O)[C@@H](N(C)C)[C@@H]4C[C@@H]2C3)o1 | > 4 µg/mL | > 4 µg/mL | 
CN(C)c1cc(CN2CCCC2)c(O)c2c1C[C@H]1C[C@H]3[C@H](N(C)C)C(O)=C(C(N)=O)C(=O)[C@@]3(O)C(O)=C1C2=O | < 4 µg/mL | > 4 µg/mL | 
CN(C)[C@@H]1C(O)=C(C(N)=O)C(=O)[C@@]2(O)C(O)=C3C(=O)c4c(O)ccc(CN5CCCC5)c4C[C@H]3C[C@@H]12 | < 4 µg/mL | < 4 µg/mL | 
CN(C)[C@@H]1C(O)=C(C(N)=O)C(=O)[C@@]2(O)C(O)=C3C(=O)c4c(O)ccc(-c5cccnc5)c4C[C@H]3C[C@@H]12 | < 4 µg/mL | < 4 µg/mL | 
CN(C)c1cc(NC2CC(C)(C)NC(C)(C)C2)c(O)c2c1C[C@H]1C[C@H]3[C@H](N(C)C)C(O)=C(C(N)=O)C(=O)[C@@]3(O)C(O)=C1C2=O | > 4 µg/mL | > 4 µg/mL | 
CN(C)[C@@H]1C(O)=C(C(N)=O)C(=O)[C@@]2(O)C(O)=C3C(=O)c4c(O)ccc(-c5ccncc5)c4C[C@H]3C[C@@H]12 | < 4 µg/mL | < 4 µg/mL | 
CN(C)[C@@H]1C(O)=C(C(N)=O)C(=O)[C@@]2(O)C(O)=C3C(=O)c4c(O)ccc(-c5ccc(CNc6cccnc6)cc5)c4C[C@H]3C[C@@H]12 | < 4 µg/mL | > 4 µg/mL | 
CN(C)[C@@H]1C(O)=C(C(N)=O)C(=O)[C@@]2(O)C(O)=C3C(=O)c4c(O)c(CNc5ccccc5)cc(I)c4C[C@H]3C[C@@H]12 | < 4 µg/mL | > 4 µg/mL | 
CC(=O)OCC(=O)Nc1ccc(-c2ccc(O)c3c2C[C@H]2C[C@H]4[C@H](N(C)C)C(O)=C(C(N)=O)C(=O)[C@@]4(O)C(O)=C2C3=O)cc1 | < 4 µg/mL | > 4 µg/mL | 
CN(C)[C@@H]1C(O)=C(C(N)=O)C(=O)[C@@]2(O)C(O)=C3C(=O)c4c(O)ccc(-c5ccc(NC(=O)NCCCCl)cc5)c4C[C@H]3C[C@@H]12 | < 4 µg/mL | > 4 µg/mL | 
COC(=O)CCC(=O)Nc1ccc(-c2ccc(O)c3c2C[C@H]2C[C@H]4[C@H](N(C)C)C(O)=C(C(N)=O)C(=O)[C@@]4(O)C(O)=C2C3=O)cc1 | < 4 µg/mL | > 4 µg/mL | 
CN1CCN(c2cc(N(C)C)c3c(c2O)C(=O)C2=C(O)[C@]4(O)C(=O)C(C(N)=O)=C(O)[C@@H](N(C)C)[C@@H]4C[C@@H]2C3)CC1 | > 4 µg/mL | > 4 µg/mL | 
